The test system of one assay is S. aureus DPC5246. To be noted: BHI broth, 37° C., 24 h, OD590.
Assay [1] relates to L. monocytogenes NCTC 11994. To be noted: BHI broth, 37° C., 24 h, OD590.
The subject of the next assay is E. coli strains. The conditions noted are these: broth-based MIC50 assay.
For assay [2], the system named is L. delbrueckii subsp. bulgaricus. Description: antimicrobial activity of purified peptide (well diffusion, FIG. 1). In kind it is cell-based, Lactobacillus delbrueckii subsp. bulgaricus. As to the method:
(§1) The antimicrobial peptide was purified from a 0.5 L overnight culture of L. salivarius DPC6502 grown in MRS-IM-G media. The cells were removed by centrifugation at 8,000×g for 15 min, and the supernatant applied to a column containing 10 ml SP sepharose Fast flow cation-exchange resin (GE Healthcare, UK) previously equilibrated with 50 mM sodium acetate buffer, pH 4.5. The column was washed with 50 mM sodium acetate buffer, pH 4.5 containing 0.3 M NaCl, the bioactive peptide was subsequently eluted from the column using 50 mM sodium acetate buffer, pH 4.5 containing 1.0 M NaCl. The eluate was applied to a 2.0 g (12 ml volume) C18 Bond Elute column (Phenomenex, Cheshire, UK) pre-equilibrated with methanol and water. […] The column was pre-equilibrated with 10% acetonitrile containing 0.1% (vol/vol) TFA, followed by separation and elution of the bioactive peptide by gradient RP-HPLC using 0.1% (vol/vol) TFA and acetonitrile concentrations that ranged from 10% to 30% (vol/vol), from 5 to 45 min at a flow rate of 1.0 ml min^−1 Absorbance was monitored at a wavelength of 214 nm. Antimicrobial peptide activity was monitored throughout the purification procedure by well diffusion assay using the sensitive indicator strain L. delbrueckii subsp. bulgaricus LMG6901. […]
For orientation: In agar diffusion tests the substance spreads into inoculated agar from a disc or well.

Another assay deals with Listeria. Nature of the assay: antimicrobial activity of purified peptide (FIG. 1). The format is cell-based. How it is done: as §1
Another assay deals with Staphylococcus aureus. Described as above. The format is cell-based.
The subject of the next assay is L. salivarius UCC118. Nature of the assay: inhibition of strains closely related to the producer. In kind it is cell-based, Lactobacillus salivarius.
The test system of assay [3] is bovine mastitis isolate S. aureus DPC5245. The conditions noted are these: cited from earlier work.

A word on the MIC50: it is the lowest concentration that inhibits either 50% of growth or 50% of the strains tested, depending on the study.

In brackets after ≈: the same amount, converted by molar mass. Positions of bridges follow the written chain, without caps; N, C: chain ends. Residues, ends and D or L forms follow the SMILES beside them. No end group written: not given here. Bounds are passed on as bounds.

With `CSCC[C@H](NC(=O)CNC(=O)[C@@H](NC(=O)[C@@H]1CCCN1C(=O)[C@H](CCSC)NC(=O)CNC(=O)[C@H](CC(N)=O)NC(=O)[C@H](CC(N)=O)NC(=O)[C@H](Cc1ccc(O)cc1)NC(=O)[C@@H](NC(=O)[C@H](CCCNC(=N)N)NC(=O)[C@H](CS)NC(=O)[C@H](CCCNC(=N)N)NC(=O)[C@H](Cc1c[nH]cn1)NC(=O)[C@H](CCCCN)NC(=O)[C@H](CCCCN)NC(=O)[C@H](CCCNC(=N)N)NC(=O)[C@@H](N)CCCCN)C(C)C)[C@@H](C)O)C(=O)N[C@@H](Cc1ccc(O)cc1)C(=O)N[C@@H](CCCNC(=N)N)C(=O)N[C@@H](Cc1c[nH]c2ccccc12)C(=O)N[C@@H](CS)C(=O)O` [synthetic Bactofensin LS1] (H-KRKKHRCRVYNNGMPTGMYRWC-OH; N-terminus assumed), the “MIC50 (concentration sufficient to inhibit growth by 50%)” value (in the assay with S. aureus DPC5246; in [1]) was 5 µM (≈ 13.9 µg/mL) in each case. For the same compound, the “concentration that did not inhibit (MIC50 assay)” value in the assay on E. coli strains and in the assay with E. sakazakii strains was greater than 50 µM throughout.
Turning to “Bactofensin LS1: 22 aa cationic class II antimicrobial peptide of SEQ ID NO: 2 purified from L. salivarius DPC6502 (KRKKHRCRVYNNGMPTGMYRWC; disulfide 7-22; listed as Lactobacillus salivarius)”, the antimicrobial activity result (in assay [2]; with Listeria; in the assay with Staphylococcus aureus) was “active” each time. Also, the “inhibition of closely related strains” value in the assay on L. salivarius UCC118 was “inhibits”.
Regarding lacticin 3147, the MIC50 in assay [3] is 7 to 8 µM.

The record behind these values is patent publication US20140286904A1, “ANITMICROBIAL PEPTIDE PRODUCED BY INTESTINAL LACTOBACILLUS SALIVARIUS” (AGRICULTURE AND FOOD DEVELOPMENT AUTHORITY (TEAGASC), priority 2011, published 2014).
